# Calls of active or inactive are those of the source. Cut-off read from the data, not from the text of the source, for most assays here: actives have a measured IC50 and inactives only a lower limit.
# Target: T1, Sentrin-specific protease 8 (Homo sapiens, UniProt Q96LD8);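 note: luminescence read-out of SENP8 inhibition, dose-response confirmation following an ultra-high-throughput screen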
# T1 sequence (Q96LD8 whole entry): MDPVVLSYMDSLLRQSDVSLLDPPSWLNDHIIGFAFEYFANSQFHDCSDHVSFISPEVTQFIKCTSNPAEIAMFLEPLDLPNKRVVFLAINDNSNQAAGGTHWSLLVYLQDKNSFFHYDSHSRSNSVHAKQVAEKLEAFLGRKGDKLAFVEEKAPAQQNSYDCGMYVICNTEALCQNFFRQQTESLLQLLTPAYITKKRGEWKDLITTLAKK
# Assay type: functional
row,Structure (SMILES),IC50
1,O=C(NC1(O)C(=O)c2ccccc2C1=O)c1ccc(C(F)(F)F)cc1,4.9 µM (active)
2,O=C(NC1(O)C(=O)c2ccccc2C1=O)c1c(Cl)cccc1Cl,4.78 µM (active)
3,O=C(COC(=O)c1ccc([N+](=O)[O-])s1)Nc1ncc(C(F)(F)F)cc1Cl,4.83 µM (active)
4,CCN(c1ccccc1)c1cc2ccccc2c(=O)[nH]1,3.73 µM (active)

# Target: T2, Caspase-3 (Homo sapiens, UniProt P42574);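 note: Dose-response selectivity test against caspase-3 for candidate inhibitors of sentrin-specific proteases (SENPs)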
# T2 sequence (P42574 whole entry): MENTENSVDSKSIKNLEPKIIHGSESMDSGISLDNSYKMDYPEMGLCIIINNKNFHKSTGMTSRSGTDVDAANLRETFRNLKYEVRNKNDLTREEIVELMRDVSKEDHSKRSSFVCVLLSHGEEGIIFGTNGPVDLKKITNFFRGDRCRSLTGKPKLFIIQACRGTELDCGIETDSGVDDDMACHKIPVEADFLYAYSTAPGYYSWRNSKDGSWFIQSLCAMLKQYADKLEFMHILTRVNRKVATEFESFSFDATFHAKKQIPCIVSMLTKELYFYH
# Assay type: functional
row,Structure (SMILES),IC50
1,O=C(NC1(O)C(=O)c2ccccc2C1=O)c1ccc(C(F)(F)F)cc1,94.5 µM (active)
2,O=C(NC1(O)C(=O)c2ccccc2C1=O)c1c(Cl)cccc1Cl,> 100 µM (inactive)
3,O=C(COC(=O)c1ccc([N+](=O)[O-])s1)Nc1ncc(C(F)(F)F)cc1Cl,10 µM (active)
4,CCN(c1ccccc1)c1cc2ccccc2c(=O)[nH]1,2.69 µM (active)

# Target: T3, Sentrin-specific protease 6 (Homo sapiens, UniProt Q9GZR1);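 note: Luminescence-based dose-response confirmatory assay of SENP6 inhibition, following up an ultra-high-throughput screen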
# T3 sequence (Q9GZR1 whole entry): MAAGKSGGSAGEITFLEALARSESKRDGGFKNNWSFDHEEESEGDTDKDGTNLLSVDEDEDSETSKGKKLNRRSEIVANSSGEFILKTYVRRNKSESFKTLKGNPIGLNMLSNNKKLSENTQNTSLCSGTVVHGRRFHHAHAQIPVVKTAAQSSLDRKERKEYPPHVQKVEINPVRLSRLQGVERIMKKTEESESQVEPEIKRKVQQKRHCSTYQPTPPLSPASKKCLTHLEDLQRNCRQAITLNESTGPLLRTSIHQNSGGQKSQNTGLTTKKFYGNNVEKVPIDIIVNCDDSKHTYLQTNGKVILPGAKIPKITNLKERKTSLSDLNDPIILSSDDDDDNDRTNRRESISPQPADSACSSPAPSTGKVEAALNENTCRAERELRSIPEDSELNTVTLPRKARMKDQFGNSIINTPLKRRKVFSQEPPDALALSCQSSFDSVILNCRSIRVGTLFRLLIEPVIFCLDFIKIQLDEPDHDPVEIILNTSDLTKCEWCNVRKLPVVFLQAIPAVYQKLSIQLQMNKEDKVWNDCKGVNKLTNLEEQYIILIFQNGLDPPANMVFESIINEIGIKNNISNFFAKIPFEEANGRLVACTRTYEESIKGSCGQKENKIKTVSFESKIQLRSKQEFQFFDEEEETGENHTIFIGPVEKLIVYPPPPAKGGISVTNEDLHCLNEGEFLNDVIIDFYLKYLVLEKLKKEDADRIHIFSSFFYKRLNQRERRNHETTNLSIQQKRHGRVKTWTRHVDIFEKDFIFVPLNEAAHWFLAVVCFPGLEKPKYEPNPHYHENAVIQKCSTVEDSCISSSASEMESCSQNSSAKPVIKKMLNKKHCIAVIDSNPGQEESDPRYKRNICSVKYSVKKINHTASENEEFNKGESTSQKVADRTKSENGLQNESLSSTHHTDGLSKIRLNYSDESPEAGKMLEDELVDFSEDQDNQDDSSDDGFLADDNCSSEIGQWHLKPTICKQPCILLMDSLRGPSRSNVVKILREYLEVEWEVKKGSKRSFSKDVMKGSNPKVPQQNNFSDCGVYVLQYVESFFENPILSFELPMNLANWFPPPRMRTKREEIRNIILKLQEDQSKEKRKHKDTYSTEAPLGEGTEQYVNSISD
# Assay type: functional
row,Structure (SMILES),IC50
1,O=C(NC1(O)C(=O)c2ccccc2C1=O)c1ccc(C(F)(F)F)cc1,2.66 µM (active)
2,O=C(NC1(O)C(=O)c2ccccc2C1=O)c1c(Cl)cccc1Cl,3.53 µM (active)
3,O=C(COC(=O)c1ccc([N+](=O)[O-])s1)Nc1ncc(C(F)(F)F)cc1Cl,5.68 µM (active)
4,CCN(c1ccccc1)c1cc2ccccc2c(=O)[nH]1,2.21 µM (active)

# Target: T4, Histone-lysine N-methyltransferase NSD2 (Homo sapiens, UniProt O96028)
# T4 sequence (O96028 whole entry): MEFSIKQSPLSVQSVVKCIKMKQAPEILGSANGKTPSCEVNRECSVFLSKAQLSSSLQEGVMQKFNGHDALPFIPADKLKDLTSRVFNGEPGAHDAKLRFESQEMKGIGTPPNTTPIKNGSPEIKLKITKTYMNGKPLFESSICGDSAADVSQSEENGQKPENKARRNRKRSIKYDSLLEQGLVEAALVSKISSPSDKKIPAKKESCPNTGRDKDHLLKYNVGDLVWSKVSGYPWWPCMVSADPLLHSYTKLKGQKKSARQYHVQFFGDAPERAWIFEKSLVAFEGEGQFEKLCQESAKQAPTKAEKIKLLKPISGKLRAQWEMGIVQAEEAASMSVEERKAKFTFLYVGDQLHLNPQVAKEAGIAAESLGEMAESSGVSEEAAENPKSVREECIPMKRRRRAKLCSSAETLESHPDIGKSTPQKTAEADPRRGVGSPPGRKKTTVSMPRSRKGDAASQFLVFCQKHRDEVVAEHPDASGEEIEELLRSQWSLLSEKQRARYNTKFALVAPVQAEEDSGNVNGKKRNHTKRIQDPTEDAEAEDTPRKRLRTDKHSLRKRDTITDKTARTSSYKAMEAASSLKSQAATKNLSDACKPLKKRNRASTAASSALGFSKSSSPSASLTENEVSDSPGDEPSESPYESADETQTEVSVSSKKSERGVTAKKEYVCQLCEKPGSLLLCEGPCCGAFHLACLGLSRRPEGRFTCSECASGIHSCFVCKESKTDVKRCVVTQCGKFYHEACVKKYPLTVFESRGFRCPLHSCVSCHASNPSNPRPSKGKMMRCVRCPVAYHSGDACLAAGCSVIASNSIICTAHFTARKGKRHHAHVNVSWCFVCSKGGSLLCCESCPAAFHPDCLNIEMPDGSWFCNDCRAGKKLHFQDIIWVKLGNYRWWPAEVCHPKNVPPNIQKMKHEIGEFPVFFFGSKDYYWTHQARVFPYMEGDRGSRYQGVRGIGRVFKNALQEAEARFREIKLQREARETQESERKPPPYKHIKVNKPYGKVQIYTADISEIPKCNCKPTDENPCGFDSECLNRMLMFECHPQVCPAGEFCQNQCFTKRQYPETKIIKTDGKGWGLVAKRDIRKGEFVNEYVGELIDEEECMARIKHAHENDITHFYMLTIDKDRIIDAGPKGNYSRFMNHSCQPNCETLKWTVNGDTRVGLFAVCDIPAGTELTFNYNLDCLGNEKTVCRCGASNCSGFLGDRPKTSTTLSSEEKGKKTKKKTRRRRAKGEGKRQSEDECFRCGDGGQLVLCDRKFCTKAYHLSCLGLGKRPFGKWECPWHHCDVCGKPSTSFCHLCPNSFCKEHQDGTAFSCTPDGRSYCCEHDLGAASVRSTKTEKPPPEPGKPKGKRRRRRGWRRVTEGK
# Assay type: biochemical
row,Structure (SMILES),AC50
1,O=C(NC1(O)C(=O)c2ccccc2C1=O)c1ccc(C(F)(F)F)cc1,3.39 µM (active)
2,O=C(NC1(O)C(=O)c2ccccc2C1=O)c1c(Cl)cccc1Cl,3.16 µM (active)
3,O=C(COC(=O)c1ccc([N+](=O)[O-])s1)Nc1ncc(C(F)(F)F)cc1Cl,12.5 µM (active)
